Data set [1] concerns A431 cells. Nature of the data set: MAL-induced PpIX accumulation, fluorescence plate reader. In kind it is cell-based, human. To be noted: 3 hours.
The subject of data set [2] is A431 cells. Nature of the data set: Mitochondrial reactive oxygen species generation during photodynamic irradiation, MitoSOX flow cytometry. In kind it is cell-based, human. The note with it: for MitoSOX fluorescence, percentage of untreated cells: 3 hours, irradiated. In outline: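 A431 cells received AP39-C10 (10, 100 or 1000 nM) for 5 h, MAL (1 mM) for 3 h and MitoSOX (2.5 μM) for 1 h, then were irradiated for 5 min (630 nm, 25 J/cm^2). Mitochondrial oxidant production was read immediately as MitoSOX fluorescence by flow cytometry and expressed as percent of untreated controls.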
Background: Flow cytometry measures light scatter and fluorescence of single cells or particles in a stream.

Data set [3] has as its system A431 cells. Nature of the data set: MAL-induced PpIX accumulation, fluorescence plate reader. In kind it is cell-based, human. As to the method:
After treatment, the cells were washed with PBS and a final 100 μl PBS was pipetted into each well for fluorescence readings. The fluorescence of PpIX was measured using a BMG Pherastar plate reader with a 410 nm excitation filter and a 630 nm emission filter.
A431 cells were treated concurrently with slow-releasing hydrogen sulfide donors (1 μM) for 5 hours and MAL (1 mM) for 3 hours, after which PpIX accumulation was measured by fluorescence plate reader (excitation 410 nm, […]). Co-treatment with CP94 (50 μM) was used as a positive control and for comparison.

Data set [4] concerns A431 cells. The essentials:
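In the PDT set-up, cells held at 2% O2 got 1 mM MAL with or without compound for 3 h, then 3 h recovery under 2% O2. Compound-alone cytotoxicity used cells seeded at 3×10^5/well for 24 h, treated for the relevant time.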

The target in the next data set is T1, thioredoxin reductase (Homo sapiens, UniProt Q16881).
T1 sequence (Q16881 151-649 limits assumed): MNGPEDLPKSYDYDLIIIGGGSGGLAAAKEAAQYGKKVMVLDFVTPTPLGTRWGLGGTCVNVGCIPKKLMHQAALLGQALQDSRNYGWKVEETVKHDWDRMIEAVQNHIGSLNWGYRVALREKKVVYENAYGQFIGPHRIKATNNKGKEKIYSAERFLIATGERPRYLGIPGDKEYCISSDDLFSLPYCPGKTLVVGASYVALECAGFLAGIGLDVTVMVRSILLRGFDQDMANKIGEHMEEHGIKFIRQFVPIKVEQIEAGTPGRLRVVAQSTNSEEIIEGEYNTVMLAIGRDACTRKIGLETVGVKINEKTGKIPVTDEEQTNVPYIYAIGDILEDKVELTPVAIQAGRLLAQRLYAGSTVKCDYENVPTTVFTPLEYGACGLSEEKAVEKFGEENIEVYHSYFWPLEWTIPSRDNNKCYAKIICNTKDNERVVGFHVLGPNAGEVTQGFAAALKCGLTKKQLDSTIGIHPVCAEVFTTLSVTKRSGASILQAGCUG
The note with it: cited from earlier work.

Data set [5] has as its system A431 cells. Nature of the data set: Photodynamic cell killing in the presence of inhibitors of the thioredoxin antioxidant system or nitroxides (annexin V-FITC/propidium iodide flow cytometry). In kind it is cell-based, human. Here is the method:
After this treatment, the cells were irradiated for 5 min (630 nm, 25 J/cm^2), then washed with PBS and the culture medium was replaced, after which the cells were placed back under 2% O2 and incubated for a further 3 h. Following this final incubation, cell death was analysed by annexin V-FITC and propidium iodide staining in conjunction with flow cytometry.
(§1) Cell death analysis by flow cytometry was carried out using the annexin V-FITC/propidium iodide protocol. This protocol allows a quantitative assessment of cell death, particularly specific modes of death, and involves staining the cells with fluorescein isothiocyanate-conjugated annexin A5 (annexin V-FITC) and propidium iodide (PI). Positive staining with annexin V-FITC alone indicates an apoptotic cell; positive staining with PI alone indicates a necrotic cell and dual staining of both annexin V and PI indicates a “late apoptotic” cell.
(§2) From each flask being assessed, the old medium was removed and placed into a corresponding individual 15 ml Falcon tube in order to collect any cells that may have detached from the surface. The flask was washed once with 1 ml PBS; also deposited in the Falcon tubes. Trypsin (500 μl) was added to each flask and the flasks were returned to the incubator with their caps loosened. Cell detachment was monitored using an inverted light microscope, until 50% of the cells were detached. The flasks were then lightly tapped to detach the remainder of the cells. Medium (2 ml) was added to each flask in order to neutralise the trypsin present before being removed and dispensed into the Falcon tubes. One more wash with PBS was carried out in order to ensure any cells left in the flasks were collected. The Falcon tubes were then centrifuged at 490 g for 3 min, forming a pellet at the bottom of the tube. The supernatant was discarded, and the cells were re-suspended in 5 ml of PBS, in order to wash them, before being centrifuged again at 490 g for 3 min. The wash stage was carried out once more before re-suspending the cell pellet in 95 μl of ice cold calcium (Ca^2+) buffer (50 mM HEPES, 700 mM NaCl, 12.5 mM CaCl2, pH 7.4) and adding 5 μl 12.5 μg/ml of annexin V-FITC (final concentration, 1.25 μg/ml), under reduced light conditions to prevent bleaching of the FITC. The Falcon tubes were placed on ice and in the dark for 15 min to allow annexin V staining. After 15 min, 860 μl of Ca^2+ buffer (10 mM Hepes adjusted to pH 7.4, 140 mM NaCl and 2.5 mM CaCl2) was added, followed by 40 μl of 1 mg/ml PI in water (final concentration, 0.04 mg/ml) to give a final volume of 1 ml. The samples were then ready to be assessed by flow cytometry.
(§3) The following flow cytometry process of sample detection was used. When using annexin V-FITC and PI, the detectors being used were FL1 (λmax=520 nm) and FL3 (λmax=670 nm), respectively, each with their own logarithmic histogram generated by the software. The intensity of the fluorescence detected is measured on a logarithmic scale on the x-axis and the y-axis represents the number of cells detected at a given fluorescence intensity. A plot of FL1/FL3 produces a 4-quadrant graph, where unstained and untreated cells are located in the bottom left quadrant, representing any cells found in the 1st decade of the single plot logarithmic histograms. Single staining with annexin V-FITC and PI are located in the bottom right and top left quadrant, respectively, and dual staining is located in the top right quadrant. These quadrants represent any cells detected above the 1st decade of the logarithmic histograms.

Data set [6] concerns A431 cells. In words: cells. In kind it is cell-based. To be noted: Homo sapiens, A-431, light or radiation study, 3 h, read-out: cell death, 1 mM MAL 3 h and irradiation (630 nm, 25 J/cm2) in the absence of any SRHD. Here is the method:
A431 cells (human epithelial squamous cell carcinoma cells) were seeded at a density of 1×10^6 cells/ml in T12.5 cm^2 flasks and incubated under 2% O2 for 48 h prior to treatment. After 24 h, the culture medium was replaced and the cells were placed back into the incubators under 2% O2. Following this incubation period, the culture medium was then removed and the flasks were washed with PBS. The cells were then treated with one of the SRHDs and incubated at 2% O2 for 2 h, after which MAL was added to a final concentration of 1 mM and the cells were incubated at 2% O2 for 3 h. This meant in total, the cells were treated with the SRHDs for 5 h.
Following this final incubation, cell death was analysed by annexin V-FITC and propidium iodide staining in conjunction with flow cytometry.
as §1
as §2, with “The wash stage was carried out once more before re-suspending the cell pellet in 95 μl of ice cold calcium (Ca^2+) buffer (50 mM HEPES, 700 mM NaCl, 12.5 mM CaCl2, pH 7.4) and adding 5 μl 12.5 μg/ml of annexin V-FITC (final concentration, 1.25 μg/ml), under reduced light conditions to prevent bleaching of the FITC.” left out, “After 15 min, 860 μl of Ca^2+ buffer (10 mM Hepes adjusted to pH 7.4, 140 mM NaCl and 2.5 mM CaCl2) was added, followed by 40 μl of 1 mg/ml PI in water (final concentration, 0.04 mg/ml) to give a final volume of 1 ml.” left out
as §3

Values joined by “and” are separate entries in the source; they are usually repeats but may differ in a detail not shown here. Equal values may be shown once. Read-outs that look alike come from different tables or passages of the source.

Consider `CCc1c(O)c(O)cc[n+]1CC.[Cl-]` [CP94], for which the “increase in PpIX accumulation compared to MAL alone” value with A431 cells [1] (50 μM + MAL 1 mM, FIG. 35) was 223.2±26.1%. In addition, the “peak response, increase in PpIX accumulation compared to MAL alone” value in the data set on A431 cells [1] (peak at TEMPO 5 mM, MitoTEMPO 100 μM, CP94 100 μM, MAL 1 mM) worked out at 228.1±42.3%. Further, the “MitoSOX fluorescence, percentage of untreated cells” value with A431 cells [2] (MAL 1 mM + co-treatment 50 μM) stood at 198.4±7.7%. In addition, the “effect on PpIX accumulation compared to 1 mM MAL alone” value in the data set on A431 cells [3] (CP94 50 μM + MAL 1 mM, positive control) is listed as “significantly increased PpIX accumulation”.

As for `O=[N+]([O-])c1ccc(Cl)c([N+](=O)[O-])c1` [DNCB, 1-chloro-2,4-dinitrobenzene], the “cell viability, percentage of untreated control” value in the data set on A431 cells [4] (1 μM with 1 mM MAL, 3 hours) is listed as 97.4±6.9%; with A431 cells [4] (5 μM with 1 mM MAL, 3 hours), 99.4±7.3%; in the data set with A431 cells [4] (10 μM with 1 mM MAL, 3 hours), 98.6±6.2%; in the data set on A431 cells [4] (25 μM with 1 mM MAL, 3 hours), 79.0±4.3%; in the data set with A431 cells [4] (50 μM with 1 mM MAL, 3 hours) it was 57.7±1.4%; with A431 cells [4] (50 μM, 24 hours), 11.7±0.8%. Moreover, in the data set on A431 cells [4] (100 μM, 24 hours), the “cell viability, percentage of untreated control” value was determined as 14.8±4.2%. For the same compound, the “concentration up to which well tolerated / no cytotoxicity” value with A431 cells [4] (24 hours) was “up to 10 μM”. In addition, at thioredoxin reductase (50 nM reduced enzyme, 5 minutes incubation with 100 μM DNCB, presence of NAD(P)H), the “inactivation of reduced thioredoxin reductase” value was “Complete inactivation”. The “inactivation of thioredoxin reductase faster than the alkylation of GSH” value on thioredoxin reductase is ~10,000 fold. Also, the “modes of cell death” value in the data set on A431 cells [5] (1 mM MAL + DNCB 10 μM or auranofin 100 nM + irradiation, compared to MAL and irradiation, FIG. 10) is on record as “primarily increased necrotic cell death”. Moreover, the cell death with A431 cells [5] (1 mM MAL + co-treatment 10 μM, 3 h, irradiation) is 46.3±4.0% and 43.8±3.9%. In addition, in the data set with A431 cells [5] (summary of Examples 2A, 3A), the “potentiating effect on MAL photodynamic cell killing” value was “mild potentiating effect”. Besides, the “MitoSOX fluorescence, percentage of untreated cells” value with A431 cells [2] (MAL 1 mM + co-treatment 10 μM) worked out at 209.5±3.2%.

Regarding `COC(=O)CCC(=O)CN` [MAL, methyl aminolaevulinate], in the data set with A431 cells [5] (1 mM MAL 3 h and irradiation (630 nm, 25 J/cm2) alone, no co-treatment), the cell death is 32.5±3.6% and 29.1±3.8% and 34.4±3.2% and 26.8±1.9% and 24.6±4.2%. In addition, in the data set on A431 cells [5] (1 mM MAL and irradiation alone, compared to untreated controls), the “modes of cell death” value is “increase in all types of cell death”. Further, the cytotoxicity at 1000 µM in the data set on A431 cells [6] was found to be 27.5 ± 5.5%. Moreover, in the data set with A431 cells [2] (MAL 1 mM alone, photoirradiated), the “MitoSOX fluorescence, percentage of untreated controls” value was 193.7±7.3% and 220.1±8.5% and 143.3±4.8% and 207.4±16.7%. Moreover, in the data set with A431 cells [3] (MAL 1 mM, 3 hours), the “PpIX accumulation compared to untreated controls” value is recorded as “significantly increased PpIX accumulation compared to untreated controls”.

(Values after patent US10149907B2, “Combinations of a photosensitizer with a hydrogen sulfide donor, thioredoxin inhibitor or nitroxide for use in photodynamic therapy” (UNIVERSITY OF EXETER, priority 2014, dated 2018).)
